Literature values, collected in US6630178B1, “Composition comprising soy protein, dietary fibres and a phytoestrogen compound and use thereof in the prevention and/or treatment of cardiovascular diseases” (Nutri Pharma Asa, priority 1998, dated 2003).

Test system: estrogenic effect
Details: estradiol = 100; in vitro

For `O=c1c(-c2ccc(O)cc2)coc2cc(O)ccc12` [daidzein], the “relative estrogenic potency as compared to estradiol” value is given as 0.013.
